The test system of data set [1] is incision pain model. The data set can be described thus: Incision pain model in ICR mice, Von Frey test. It counts as in vivo. The settings on record: Mean + SEM, n = 10. As to the method: Experimental Example 6: Pharmacodynamic effect study of compounds in incision pain model in ICR mice Experimental animals: ICR mice, male, 28-35 g.
(§1) Compound preparation: 5% (final preparation volume) of DMSO was added to dissolve the test compound, and then 10% (final preparation volume) of Cremophor EL and 85% Saline were sequentially added.
A plantar incision pain model was established in mice via surgery before the administration and test. Mice were placed in an anesthesia induction chamber and given 3%-4% isoflurane for anesthesia induction. After the anesthesia induction, a breathing mask was applied, and the isoflurane concentration was adjusted to 1%-2% to prevent the mice from suffering pain during the surgery. Each mouse was placed in a supine position, and the surgical site was disinfected with alcohol and iodophor. Under sterile conditions, a 0.5 cm longitudinal incision was made on the left hind paw surface, 0.2 cm away from the heel, extending toward the toes. The skin and fascia were incised; the plantar muscle was separated, slightly lifted, and longitudinally incised. The skin was then sutured with 5-0 sutures and disinfected.
2. Administration and test
The Von Frey test was performed once before the surgery. On the second day after animal modeling, the test was repeated, and animals meeting the baseline requirements were selected for enrollment. The animals were randomly grouped based on the 50% PWT values, with 10 animals per group. Administration was performed under a double-blind test protocol. The 50% PWT of the animals was measured separately before administration (baseline) and at 0.5 h, 2 h, and 4 h after administration, and a single dose was administered. The model control group was given normal saline, while the compound groups were given the compounds according to the administration doses in the table below.

The test system of data set [2] is incision pain model. The data set can be described thus: Incision pain model in ICR mice, Von Frey test. The settings on record: 50 mg/kg single dose, Mean + SEM, n = 10. Format: in vivo.
For another data set, the target named is T1, Nav1.8 channels (Homo sapiens, UniProt Q9Y5Y9).
T1 construct: expressed in transfected cells
T1 sequence (Q9Y5Y9 whole entry): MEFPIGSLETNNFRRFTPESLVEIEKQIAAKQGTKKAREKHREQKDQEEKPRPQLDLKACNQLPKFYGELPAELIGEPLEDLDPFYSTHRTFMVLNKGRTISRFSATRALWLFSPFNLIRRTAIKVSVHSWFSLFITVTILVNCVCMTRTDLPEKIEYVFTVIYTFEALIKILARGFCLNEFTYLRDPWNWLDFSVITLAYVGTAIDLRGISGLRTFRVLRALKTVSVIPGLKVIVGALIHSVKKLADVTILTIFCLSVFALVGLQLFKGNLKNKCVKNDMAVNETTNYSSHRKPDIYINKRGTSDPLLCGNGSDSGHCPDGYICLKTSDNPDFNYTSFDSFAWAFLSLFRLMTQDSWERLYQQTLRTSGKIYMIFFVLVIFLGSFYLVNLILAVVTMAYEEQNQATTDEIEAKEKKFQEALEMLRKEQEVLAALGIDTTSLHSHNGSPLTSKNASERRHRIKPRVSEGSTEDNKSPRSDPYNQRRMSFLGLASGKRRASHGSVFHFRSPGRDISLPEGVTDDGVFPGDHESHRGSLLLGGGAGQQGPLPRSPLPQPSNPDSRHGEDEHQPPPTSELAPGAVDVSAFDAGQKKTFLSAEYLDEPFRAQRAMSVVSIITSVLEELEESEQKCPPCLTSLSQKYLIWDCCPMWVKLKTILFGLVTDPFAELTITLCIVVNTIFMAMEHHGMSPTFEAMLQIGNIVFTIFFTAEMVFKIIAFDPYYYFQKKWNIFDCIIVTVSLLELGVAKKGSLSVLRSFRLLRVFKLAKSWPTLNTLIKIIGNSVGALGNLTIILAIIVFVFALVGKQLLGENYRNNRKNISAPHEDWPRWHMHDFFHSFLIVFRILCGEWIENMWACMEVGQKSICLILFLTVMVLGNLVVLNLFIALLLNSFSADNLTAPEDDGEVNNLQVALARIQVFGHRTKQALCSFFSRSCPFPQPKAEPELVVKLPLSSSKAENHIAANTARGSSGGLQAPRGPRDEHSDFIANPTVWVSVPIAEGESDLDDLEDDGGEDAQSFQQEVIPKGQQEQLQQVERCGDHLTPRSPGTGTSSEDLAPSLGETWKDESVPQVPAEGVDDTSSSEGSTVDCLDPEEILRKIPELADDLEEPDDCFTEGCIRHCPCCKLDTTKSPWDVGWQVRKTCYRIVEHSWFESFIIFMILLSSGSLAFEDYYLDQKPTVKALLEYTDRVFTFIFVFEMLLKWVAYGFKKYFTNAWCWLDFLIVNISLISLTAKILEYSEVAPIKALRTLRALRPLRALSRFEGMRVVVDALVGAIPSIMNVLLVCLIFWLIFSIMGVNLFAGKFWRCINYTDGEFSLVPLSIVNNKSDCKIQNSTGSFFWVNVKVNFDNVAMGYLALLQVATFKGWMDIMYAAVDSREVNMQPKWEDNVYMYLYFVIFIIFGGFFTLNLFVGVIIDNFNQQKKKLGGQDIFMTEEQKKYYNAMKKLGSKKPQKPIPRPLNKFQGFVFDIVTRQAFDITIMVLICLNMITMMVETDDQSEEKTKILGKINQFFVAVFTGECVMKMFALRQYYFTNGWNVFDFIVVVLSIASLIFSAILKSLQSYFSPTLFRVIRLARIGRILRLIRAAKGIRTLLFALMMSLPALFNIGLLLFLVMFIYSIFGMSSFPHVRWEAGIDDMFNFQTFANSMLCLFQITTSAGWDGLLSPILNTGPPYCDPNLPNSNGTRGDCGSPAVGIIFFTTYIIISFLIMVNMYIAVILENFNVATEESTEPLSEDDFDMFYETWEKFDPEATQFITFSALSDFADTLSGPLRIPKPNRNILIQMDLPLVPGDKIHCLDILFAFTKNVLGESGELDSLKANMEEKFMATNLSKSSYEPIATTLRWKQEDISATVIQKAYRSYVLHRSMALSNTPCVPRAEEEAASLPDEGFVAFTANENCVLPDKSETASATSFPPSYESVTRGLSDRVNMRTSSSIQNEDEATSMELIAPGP
The data set can be described thus: Manual patch-clamp, current of stably overexpressed Nav1.8 channels (resting state voltage program). It counts as cell-based. In outline:
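Whole-cell manual patch clamp on cells stably overexpressing Nav1.8, held at -120 mV and stepped to 0 mV for 50 ms every 20 s (resting-state protocol). Compounds were perfused in ascending concentrations, each for 5 min or until stable; block of peak current was calculated at steady state.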
On the technique in general: In patch-clamp work, channel activity is measured electrically.

Data set [3] can be described thus: Tissue distribution study (dorsal root ganglia) in SD rats. Format: in vivo. The settings on record: male, rat, oral administration 10 mg/kg. As to the method:
Experimental Example 5: Tissue distribution study of compounds in SD rats
Experimental animals: SD rats, male, 6-8 weeks old.
as §1
Experimental design: The test compounds were administered to SD rats as a single dose via oral administration (10 mg/kg; n = 3, 3 time points). Blood samples were collected at 0.5 h, 2 h, and 6 h after oral administration, followed by sacrifice of the animals. Dorsal root ganglia were collected, rinsed with ice-cold normal saline to remove residual blood, blotted dry with absorbent paper, and stored at -70 °C for analysis.
Sample test: The concentrations of the designated compound drugs in plasma and tissues were determined by the LC-MS/MS method.

A short description of data set [4]: Pharmacokinetic study in ICR mice. It counts as in vivo. The settings on record: male, mouse, plasma.

As to `COc1c([C@@H]2C[C@](C)(C(F)(F)F)SC2C(=O)Nc2ccnc([N+](=O)[O-])c2)ccc(F)c1F` (stereo in doubt) [a-7-A, (2S,3S,5R)-3-(3,4-difluoro-2-methoxyphenyl)-5-methyl-N-(2-nitropyridin-4-yl)-5-(trifluoromethyl)tetrahydrothiophene-2-carboxamide], in the data set with incision pain model [1] (50 mg/kg group, baseline before administration), the “PWT 50% value (g) Post-surgery, Preadministration” value worked out at 0.27 ± 0.13 g. In the data set on incision pain model [1] (50 mg/kg group, baseline before surgery), the “PWT 50% value (g) Pre-surgery” value was found to be 1.43 ± 0.43 g. The “PWT 50% value (g) 0.5 h” value in the data set on incision pain model [1] (50 mg/kg single dose, 0.5 h after administration) is 0.47 ± 0.16 g. Also, in the data set on incision pain model [1] (50 mg/kg single dose, 2 h after administration), the “PWT 50% value (g) 2 h” value was 0.72 ± 0.35 g. Moreover, in the data set with incision pain model [1] (50 mg/kg single dose, 4 h after administration), the “PWT 50% value (g) 4 h” value came out at 0.47 ± 0.25 g. In addition, the “PWT 50% value (g) AUC0-8h” value in the data set with incision pain model [2] came out at 3.62 ± 1.28 g·h. Further, half-maximal inhibition at Nav1.8 channels (IC50) required 0.15 nM. This molecule gave a concentration at 0.5 h in data set [3] (Time 0.5 h) of 115 ng/g. Further, the concentration at 2 h in data set [3] (Time 2 h) came out at 768 ng/g. The concentration at 6 h in data set [3] (Time 6 h) was 557 ng/g. Besides, the AUC(0-inf) in data set [4] (Oral administration, 10 mg/kg) stood at 10200 ng·h/mL; in data set [4] (iv, Injection (i.v.), 2 mg/kg), 2090 ng·h/mL.

What is called IC50 is the point on the concentration scale where inhibition reaches its midpoint. A high value points to weaker potency in that assay. One may read the AUC(0-inf) as the area under the concentration-time curve extrapolated to infinity. Low values mean less exposure, high ones more exposure.
